Reference: US10954214B2 (Janssen Pharmaceutica NV, priority 2016, dated 2021)

Assays:
[1] = tested on: IL10 secretion by OCI-LY3 ABC-DLBCL cells; assay: Human IL10 Mesoscale assay (OCI-LY3); assay type: cell-based; conditions: Homo sapiens, 24 h
Experimental: (§1) NFKB signaling regulates the secretion of multiple cytokines, including IL6 and IL10. Secretion of the cytokines IL6 and IL10 by TMD8 or OCI-LY3 ABC-DLBCL cells was measured using a mesoscale assay. Inhibition of NFKB signaling by MALT1 or BTK inhibitors results in a decrease of IL6/10 secretion.
(§2) TMD8 or OCI-LY3 cells were propagated in RPMI-1640 (Sigma Aldrich) supplemented with 10% fetal bovine serum (HyClone), 1 mM sodium pyruvate (Invitrogen), 2 mM L-glutamine (Sigma Aldrich) and 1% PenStrep (Sigma Aldrich). Cell passage number should not exceed 30. Cells should be kept between 0.5-2.5 million cells per mL during culturing and cells should be supplemented every 2-3 days with fresh 50 μM beta-mercaptoenthanol. No beta-mercaptoethanol was used during the mesoscale assay.
(§3) For the Mesoscale assay, 100,000 TMD8 or OCI-LY3 cells were seeded per well into black-colored 96-well plates with clear bottom (Corning #3904) and test compounds were added in 9 dilution steps (1:2) ranging from 15 μM to 58.6 nM (final DMSO concentration 0.3%). DMSO control wells were used to determine the maximum signal (High Control (HC)). Treatment with the BTK inhibitor RN486 in a dose range from 30 nM to 131 pM (9 dilutions of 1:2) served as a positive control for NFKB pathway inhibition and was used to determine the maximum inhibition (Low Control (LC)). Compounds and cells were incubated for 24 h at 37° C. and 5% CO2 (assay volume is 150 μL). After 24 h of incubation 50 μL of the supernatant was transferred to a MSD plate (V-Plex Proinflammation Panel 1 (human) kit, Mesoscale (MSD)) and incubated for 2 h with vigorous shaking (600 rpm) at room temperature. Following incubation, plates were washed 3× with PBS+0.05% Tween-20 and 25 μL detection antibody solution (IL6 & IL10 antibodies in diluent 3 (MSD)) was added per well followed by 2 h of incubation with vigorous shaking (600 rpm) at room temperature. After 3× washes with PBS+0.05% Tween-20, plates were incubated with 150 μL 2× Read Buffer T and read on SECTOR imager.

[2] = tested on: IL6 secretion by OCI-LY3 ABC-DLBCL cells; assay: Human IL6 Mesoscale assay (OCI-LY3); assay type: cell-based; conditions: Homo sapiens, 24 h
Experimental: as §1, §2, §3

[3] = target: full-length MALT1 protein (Strep-MALT1(1-824)-His) (Homo sapiens (Human), UniProt Q9UDY8); assay: MALT1 Biochemical Protease Assay (Ac-LRSR-AMC substrate); conditions: 10 nM FL MALT1, 200 μM Ac-LRSR-AMC, 4 h at RT; read-out: MALT1_Biochemical activity (Ac-LRSR-amc) IC50
Summary of the method: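 Full-length MALT1 pre-incubated with compounds (30 μM to 0.5 nM, 11 threefold steps) for 50 min at RT. After Ac-LRSR-AMC was added, the reaction ran 4 h at RT and AMC fluorescence was read. IC50 and Hill slope from curve fitting against no-enzyme and no-compound controls.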

full-length MALT1 protein (Strep-MALT1(1-824)-His), sequence (Q9UDY8 whole entry): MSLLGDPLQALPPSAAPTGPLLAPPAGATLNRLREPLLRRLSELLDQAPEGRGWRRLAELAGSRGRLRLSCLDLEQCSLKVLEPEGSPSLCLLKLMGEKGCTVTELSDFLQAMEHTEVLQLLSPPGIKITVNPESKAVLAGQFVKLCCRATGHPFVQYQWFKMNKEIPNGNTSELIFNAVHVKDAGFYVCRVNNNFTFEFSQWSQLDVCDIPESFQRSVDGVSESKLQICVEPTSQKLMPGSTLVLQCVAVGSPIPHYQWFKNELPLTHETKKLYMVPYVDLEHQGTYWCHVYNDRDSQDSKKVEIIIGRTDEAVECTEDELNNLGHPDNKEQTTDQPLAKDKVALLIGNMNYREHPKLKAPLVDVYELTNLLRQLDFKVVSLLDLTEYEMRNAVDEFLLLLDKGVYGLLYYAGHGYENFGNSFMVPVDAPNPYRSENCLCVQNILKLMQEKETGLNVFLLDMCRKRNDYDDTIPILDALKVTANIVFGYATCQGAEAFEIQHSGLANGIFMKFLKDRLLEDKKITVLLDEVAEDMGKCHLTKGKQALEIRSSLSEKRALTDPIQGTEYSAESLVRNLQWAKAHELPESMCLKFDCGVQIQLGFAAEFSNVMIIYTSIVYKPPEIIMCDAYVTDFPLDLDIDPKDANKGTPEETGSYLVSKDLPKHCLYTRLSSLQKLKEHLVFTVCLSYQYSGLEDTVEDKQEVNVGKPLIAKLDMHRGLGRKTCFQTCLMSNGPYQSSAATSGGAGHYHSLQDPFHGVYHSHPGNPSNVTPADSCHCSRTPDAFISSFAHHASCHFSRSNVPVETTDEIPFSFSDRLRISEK

Row | IC50 [1] | IC50 [2] | IC50 [3] | SMILES
1 | 95 nM | 117 nM | 17 nM | O=C(Nc1cnc(-n2nccn2)c(Cl)c1)c1cnn(-c2cnc(N3CC[C@H](O)C3)c3sccc23)c1C(F)(F)F [Cpd 431, (S)—N-(5-chloro-6-(2H-1,2,3-triazol-2-yl)pyridin-3-yl)-1-(7-(3-hydroxypyrrolidin-1-yl)thieno[2,3-c]pyridin-4-yl)-5-(trifluoromethyl)-1H-pyrazole-4-carboxamide]
2 | 479 nM | 457 nM | 20 nM | COc1ncc(-n2ncc(C(=O)Nc3cnc(-n4nccn4)c(Cl)c3)c2C(F)(F)F)c2ccccc12 [Cpd 421, N-(5-chloro-6-(2H-1,2,3-triazol-2-yl)pyridin-3-yl)-1-(1-methoxyisoquinolin-4-yl)-5-(trifluoromethyl)-1H-pyrazole-4-carboxamide]
3 | 24 nM | 25 nM | 60 nM | O=C(Nc1cnc(-n2nccn2)c(Cl)c1)c1cnn(-c2cnc(C3CCCO3)c3ccccc23)c1C(F)(F)F (stereo not drawn) [Cpd 365, N-(5-chloro-6-(2H-1,2,3-triazol-2-yl)pyridin-3-yl)-1-(1-(tetrahydrofuran-2-yl)isoquinolin-4-yl)-5-(trifluoromethyl)-1H-pyrazole-4-carboxamide]
4 | 182 nM | 209 nM | 141 nM | Cc1cc(-n2nccn2)c(C#N)cc1NC(=O)c1cnn(-c2cnc(N)c3ccccc23)c1C(F)(F)F [Cpd 337, 1-(1-aminoisoquinolin-4-yl)-N-(5-cyano-2-methyl-4-(2H-1,2,3-triazol-2-yl)phenyl)-5-(trifluoromethyl)-1H-pyrazole-4-carboxamide]
5 | 550 nM | 851 nM | 123 nM | O=C(Nc1cnc(-n2ccnn2)c(C(F)(F)F)c1)c1cnn(-c2cccc3ncccc23)c1C(F)(F)F [Cpd 283, N-(6-(1H-1,2,3-triazol-1-yl)-5-(trifluoromethyl)pyridin-3-yl)-1-(quinolin-5-yl)-5-(trifluoromethyl)-1H-pyrazole-4-carboxamide]
6 | 44 nM | 48 nM | 417 nM | N#Cc1cc(NC(=O)c2cnn(-c3cccc4nc(N)ccc34)c2C(F)(F)F)cnc1-n1nccn1 [Cpd 332, 1-(2-aminoquinolin-5-yl)-N-(5-cyano-6-(2H-1,2,3-triazol-2-yl)pyridin-3-yl)-5-(trifluoromethyl)-1H-pyrazole-4-carboxamide]
7 | 16 nM | 40 nM | 117 nM | CNc1ncc(-n2ncc(C(=O)Nc3cnc(-n4nccn4)c(Cl)c3)c2C(F)(F)F)c2cccc(F)c12 [Cpd 324, N-(5-chloro-6-(2H-1,2,3-triazol-2-yl)pyridin-3-yl)-1-(8-fluoro-1-(methylamino)isoquinolin-4-yl)-5-(trifluoromethyl)-1H-pyrazole-4-carboxamide]
8 | 115 nM | 135 nM | 251 nM | Cc1nc(-n2nccn2)c(C#N)cc1NC(=O)c1cnn(-c2cccc3scnc23)c1C(F)(F)F [Cpd 297, 1-(benzo[d]thiazol-4-yl)-N-(5-cyano-2-methyl-6-(2H-1,2,3-triazol-2-yl)pyridin-3-yl)-5-(trifluoromethyl)-1H-pyrazole-4-carboxamide]
9 | 24 nM | 46 nM | 447 nM | O=C(Nc1cnc(-n2nccn2)c(Cl)c1)c1cnn(-c2cnc(C3CCCN3)c3ccccc23)c1C(F)(F)F (stereo not drawn) [Cpd 380, N-(5-chloro-6-(2H-1,2,3-triazol-2-yl)pyridin-3-yl)-1-(1-(pyrrolidin-2-yl)isoquinolin-4-yl)-5-(trifluoromethyl)-1H-pyrazole-4-carboxamide]
10 | 15 nM | 15 nM | 977 nM | COCCOc1ncc(C(F)(F)F)cc1NC(=O)c1cnn(-c2cccc3c(=O)[nH]ccc23)c1C(F)(F)F [Cpd 357, N-(2-(2-methoxyethoxy)-5-(trifluoromethyl)pyridin-3-yl)-1-(1-oxo-1,2-dihydroisoquinolin-5-yl)-5-(trifluoromethyl)-1H-pyrazole-4-carboxamide]
11 | 200 nM | 200 nM | 110 nM | N#Cc1cc(NC(=O)c2cnn(-c3cccc4cn[nH]c34)c2C(F)(F)F)cnc1-n1nccn1 [Cpd 286, N-(5-cyano-6-(2H-1,2,3-triazol-2-yl)pyridin-3-yl)-1-(1H-indazol-7-yl)-5-(trifluoromethyl)-1H-pyrazole-4-carboxamide]
12 | 87 nM | 107 nM | 117 nM | Nc1ncc(-n2ncc(C(=O)Nc3ccnc(C(F)(F)F)c3)c2C(F)(F)F)c2ccccc12 [Cpd 339, 1-(1-aminoisoquinolin-4-yl)-5-(trifluoromethyl)-N-(2-(trifluoromethyl)pyridin-4-yl)-1H-pyrazole-4-carboxamide]
13 | 12600 nM | > 15100 nM | 282 nM | COCc1cnnn1-c1ncc(NC(=O)c2cnn(-c3cccc4ncccc34)c2C(F)(F)F)cc1Cl [Cpd 253, N-(5-chloro-6-(5-(methoxymethyl)-1H-1,2,3-triazol-1-yl)pyridin-3-yl)-1-(quinolin-5-yl)-5-(trifluoromethyl)-1H-pyrazole-4-carboxamide]
14 | 68 nM | 93 nM | 71 nM | Cc1nc(-n2nccn2)c(Cl)cc1NC(=O)c1cnn(-c2c[n+]([O-])cc3sccc23)c1C(F)(F)F [Cpd 410, 4-(4-((5-chloro-2-methyl-6-(2H-1,2,3-triazol-2-yl)pyridin-3-yl)carbamoyl)-5-(trifluoromethyl)-1H-pyrazol-1-yl)thieno[2,3-c]pyridine 6-oxide]
15 | 182 nM | 166 nM | 72 nM | O=C(Nc1cnc(-n2nccn2)c(Cl)c1)c1cnn(-c2cnc(Cl)c3sccc23)c1C(F)(F)F [Cpd 424, N-(5-chloro-6-(2H-1,2,3-triazol-2-yl)pyridin-3-yl)-1-(7-chlorothieno[2,3-c]pyridin-4-yl)-5-(trifluoromethyl)-1H-pyrazole-4-carboxamide]
16 | 339 nM | 447 nM | 245 nM | O=C(Nc1cnc(-n2nnc3cccnc32)c(Cl)c1)c1cnn(-c2cccc3ncccc23)c1C(F)(F)F [Cpd 165, N-(6-(3H-[1,2,3]triazolo[4,5-b]pyridin-3-yl)-5-chloropyridin-3-yl)-1-(quinolin-5-yl)-5-(trifluoromethyl)-1H-pyrazole-4-carboxamide]
17 | 182 nM | 204 nM | 1260 nM | O=C(Nc1ccnc(C2CC2)c1)c1cnn(-c2cccc3c(=O)[nH]ccc23)c1C(F)(F)F [Cpd 350, N-(2-cyclopropylpyridin-4-yl)-1-(1-oxo-1,2-dihydroisoquinolin-5-yl)-5-(trifluoromethyl)-1H-pyrazole-4-carboxamide]
18 | 123 nM | 155 nM | 245 nM | Cc1nc(-c2ccn(C)n2)c(Cl)cc1NC(=O)c1cnn(-c2cnc(N)c3ccccc23)c1C(F)(F)F [Cpd 333, 1-(1-aminoisoquinolin-4-yl)-N-(5-chloro-2-methyl-6-(1-methyl-1H-pyrazol-3-yl)pyridin-3-yl)-5-(trifluoromethyl)-1H-pyrazole-4-carboxamide]
19 | 89 nM | 107 nM | 8910 nM | O=C(Nc1cnc(-n2nccn2)c(Cl)c1)c1cnn(-c2cnc(C3CCCO3)c3cccc(C4CCCO4)c23)c1C(F)(F)F (stereo not drawn) [Cpd 366, 1-(1,5-bis(tetrahydrofuran-2-yl)isoquinolin-4-yl)-N-(5-chloro-6-(2H-1,2,3-triazol-2-yl)pyridin-3-yl)-5-(trifluoromethyl)-1H-pyrazole-4-carboxamide]
20 | 123 nM | 132 nM | 91 nM | N#Cc1cc(NC(=O)c2cnn(-c3cnc(F)c4ccccc34)c2C(F)(F)F)cnc1-n1nccn1 [Cpd 289, N-(5-cyano-6-(2H-1,2,3-triazol-2-yl)pyridin-3-yl)-1-(1-fluoroisoquinolin-4-yl)-5-(trifluoromethyl)-1H-pyrazole-4-carboxamide]
21 | 3160 nM | 2750 nM | 141 nM | N#Cc1cc(NC(=O)c2cnn(-c3cccc4ncnn34)c2C(F)(F)F)cnc1-n1nccn1 [Cpd 274, 1-([1,2,4]triazolo[1,5-a]pyridin-5-yl)-N-(5-cyano-6-(2H-1,2,3-triazol-2-yl)pyridin-3-yl)-5-(trifluoromethyl)-1H-pyrazole-4-carboxamide]
